Measured values published in US20200087709A1, “DIRECT-TO-CONSUMER GENOMIC DIAGNOSTIC DEVICE” (MicroInvestigate, LLC, priority 2018, published 2020).
“Also recorded” adds a separate entry of the source.

Columns and labels:
Assay in all cases: Antibiotic testing by broth microdilution
Format in all cases: cell-based
[1] = tested on: Streptococcus salivarius patient isolate; settings: for resistance or susceptibility by broth dilution: S. salivarius (mef(A) positive); for MIC: Streptococcus salivarius, 20 h, S. salivarius patient isolate, discovered mef(A)+, BHI, 37° C., 20 hour incubation
Protocol: (§1) All bacteria were tested for their antimicrobial susceptibility by broth microdilution. Ampicillin (Cat #97061-442) was obtained from VWR (Amresco) and Erythromycin (Cat # TCE0751-5G) was obtained from VWR (TCI). Bacteria were maintained on blood agar plates at 37° C., and single colonies selected for inoculation into liquid overnight cultures in sterile Brain-Heart Infusion (BHI, VWR Cat #90003-038). For each culture, 5 mL of BHI media was inoculated in a sealed 15 ml falcon tube for overnight incubation at 37° C. (no shaking). Gentle inversion was used to mix the cultures prior to setting up the assay.
(§2) For the experiment, 5 μl of overnight culture was mixed with 5 mL of BMI media (1000× dilution) in a sterile tray and gently mixed. This dilute culture was added at […] per well of a 96-well plate pre-loaded with 20 μl of antibiotic solutions ranging, for erythromycin, from 0.5 to 32 μg/ml (10×) to produce the desired final concentrations of 0.05-3.2 μg/ml. For ampicillin, the stocks were 1.25 μg/ml-80 μg/ml resulting in final concentrations of 0.125 μg/ml-8 μg/ml. The 96-well plate was then transferred to a FilterMax F5 microplate reader for a 20 hour incubation at a temperature of 37° C., with readings taken every 30 minutes. A10-second orbital shaking was performed prior to each reading.

[2] = tested on: Streptococcus pyogenes MGAS10394; settings: for resistance or susceptibility by broth dilution: S. pyogenes MGAS10394 (mef(A) positive); for MIC: Streptococcus pyogenes, MGAS10394, 20 h, S. pyogenes MGAS10394, known mef(A)+, BHI, 37° C., 20 hour incubation
Protocol: as §1, §2

[3] = tested on: Streptococcus pyogenes MGAS6180; settings: for resistance or susceptibility by broth dilution: S. pyogenes MGAS6180 (mef(A) negative); for MIC: Streptococcus pyogenes, S. pyogenes MGAS6180, known mef(A)−, BHI, 37° C., 20 hour incubation
Protocol: as §1, §2

[4] = tested on: Streptococcus agalactiae SGBS025; settings: for resistance or susceptibility by broth dilution: S. agalactiae (ermB positive and mef(A) negative); for MIC: Streptococcus agalactiae, SGBS025, 20 h, S. agalactiae SGBS025, known ermB+, mef(A)−, BHI, 37° C., 20 hour incubation
Protocol: as §1, §2

Row | MIC [1] | MIC [2] | MIC [3] | MIC [4] | SMILES | resistance or susceptibility by broth dilution [1] | resistance or susceptibility by broth dilution [2] | resistance or susceptibility by broth dilution [3] | resistance or susceptibility by broth dilution [4]
1 | ≥ 3.2 mg/L | ≥ 3.2 mg/L | < 0.05 mg/L | ≥ 3.2 mg/L | CC[C@H]1OC(=O)[C@H](C)[C@@H](O[C@H]2C[C@@](C)(OC)[C@@H](O)[C@H](C)O2)[C@H](C)[C@@H](O[C@@H]2O[C@H](C)C[C@H](N(C)C)[C@H]2O)[C@](C)(O)C[C@@H](C)C(=O)[C@H](C)[C@@H](O)[C@]1(C)O [erythromycin, Erythromycin] | resistant | resistant | susceptible | robust resistance; also recorded: resistant
2 | < 0.125 mg/L | < 0.125 mg/L | < 0.125 mg/L | < 0.125 mg/L | CC1(C)S[C@@H]2[C@H](NC(=O)[C@H](N)c3ccccc3)C(=O)N2[C@H]1C(=O)O [ampicillin, Ampicillin] | susceptible | susceptible | susceptible | susceptible
